Experimental data published in publication PMC12093056, “Mechanistic insights into the ATP-mediated and species-dependent inhibition of TrpRS by chuangxinmycin” (RSC Chemical Biology, 2025).

Key:
SaTrpRS [1] = target: T1, SaTrpRS (Staphylococcus aureus, UniProt P67594); assay: X-ray crystal structure; type: binding; details: Trp site
T1 construct: gene trpS; codon-optimised synthetic gene, C-terminal 6xHis tag (pET-28a), no tag cleavage told; E. coli BL21(DE3); dimer

SaTrpRS [2] = target: T1, SaTrpRS; assay: ATP consumption, Kinase-Glo luminescence; type: biochemical; details: 2 μM ATP, 10 μM Trp, 40 mM MgCl2, 50 mM NH2OH instead of tRNA, pH 7.5, 37 °C, 1.5 h
EcTrpRS [3] = target: T2, EcTrpRS (Escherichia coli, UniProt P00954); assay: X-ray crystal structure; type: binding
T2 construct: gene trpS; C-terminal 6xHis tag (pET-28a), no tag cleavage told; E. coli BL21(DE3); two chains in asymmetric unit

SaTrpRS [4] = target: T1, SaTrpRS; assay: ATP consumption, Kinase-Glo luminescence; type: biochemical; details: 2 μM ATP, 10 μM Trp, 40 mM MgCl2, 50 mM NH2OH instead of tRNA, pH 7.5, 37 °C; Trp site
EcTrpRS [5] = target: T2, EcTrpRS; assay: ATP consumption, Kinase-Glo luminescence; type: biochemical; details: 2 μM ATP, 10 μM Trp, 40 mM MgCl2, 50 mM NH2OH instead of tRNA, pH 7.5, 37 °C; Trp site

T1 sequence (P67594 whole entry): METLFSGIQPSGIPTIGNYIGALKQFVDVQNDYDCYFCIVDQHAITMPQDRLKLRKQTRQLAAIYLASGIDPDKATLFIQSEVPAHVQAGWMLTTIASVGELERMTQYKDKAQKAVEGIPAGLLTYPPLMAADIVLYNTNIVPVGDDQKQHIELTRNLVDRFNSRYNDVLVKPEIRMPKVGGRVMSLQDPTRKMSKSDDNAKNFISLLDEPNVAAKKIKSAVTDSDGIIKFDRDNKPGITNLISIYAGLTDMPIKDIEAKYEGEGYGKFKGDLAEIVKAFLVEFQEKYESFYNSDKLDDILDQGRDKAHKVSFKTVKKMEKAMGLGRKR

N[C@@H](Cc1c[nH]c2ccccc12)C(=O)O [tryptophan]
X-ray crystal structure (SaTrpRS [1]; 2.32 Å): SaTrpRS in complex with Trp (SaTrpRS/Trp complex)

Nc1ncnc2c1ncn2[C@@H]1O[C@H](COP(=O)(O)OP(=O)(O)OP(=O)(O)O)[C@@H](O)[C@H]1O [ATP]
ATP consumption, Kinase-Glo luminescence (SaTrpRS [2]): The activity of TrpRS was measured vis ATP hydrolysis using Kinase-Glo® kit

Nc1ncnc2c1ncn2[C@@H]1O[C@H](COP(=O)(O)OC(=O)[C@@H](N)Cc2c[nH]c3ccccc23)[C@@H](O)[C@H]1O [tryptophanyl-5′-AMP]
X-ray crystal structure (EcTrpRS [3]; 2.24 Å, endogenous, closed chain B, enzyme-bound reaction intermediate): chain B is in a closed state and binds to an endogenous tryptophanyl-5′-AMP (TrpAMP) molecule

CC1(C)c2c[nH]c3cccc(c23)S[C@H]1C(=O)O [mCXM, 3-methylchuangxinmycin]
X-ray crystal structure (EcTrpRS [3]; Trp site): The complex structures of these analogues with EcTrpRS and SaTrpRS were solved. | inhibition (SaTrpRS [4]): mCXM exhibits stronger inhibition of SaTrpRS compared to EcTrpRS | inhibition (EcTrpRS [5]): The inhibitory activity of mCXM against EcTrpRS is lower than that of CXM | X-ray crystal structure (SaTrpRS [1]): The complex structures of these analogues with EcTrpRS and SaTrpRS were solved.

CC1c2c[nH]c3cccc(c23)SC1C(=O)O (centres unmarked) [CXM, chuangxinmycin]
X-ray crystal structure (EcTrpRS [3]; 2.24 Å, open chain A, Trp site, also ternary with ATP and Mg2+ (1.92 and 2.15 Å)): Chain A exists in an open state and binds to a CXM molecule | inhibition (EcTrpRS [5]): Inhibition of EcTrpRS by CXM, dCXM, and mCXM, as measured by ATP hydrolysis assays

O=C(O)C1Cc2c[nH]c3cccc(c23)S1 (centres unmarked) [dCXM, 3-demethylchuangxinmycin]
X-ray crystal structure (EcTrpRS [3]; Trp site): The complex structures of these analogues with EcTrpRS and SaTrpRS were solved. | inhibition (EcTrpRS [5]): Inhibition of EcTrpRS by CXM, dCXM, and mCXM, as measured by ATP hydrolysis assays
